Measurements taken from US20260217767A1, “NOVEL A4B7 THIOETHER PEPTIDE DIMER ANTAGONISTS” (Protagonist Therapeutics, Inc., priority 2014, published 2026).
Read-outs that look alike come from different tables or passages of the source. *1 amine or outer side, *2 acyl side, *3 side chain or, on linkers, in order; H or OH if unused. Where a SMILES comes first, the peptide text is derived from it. Bridges are numbered along the chain shown (N, C = ends). Roman numbers before positions name the chains, in order. [ ]: non-standard residue; d: D form. Phe(4-tBu) = CC(C)(C)c1ccc(C[C@H](N)C(=O)O)cc1; Bip = N[C@@H](Cc1ccc(-c2ccccc2)cc1)C(=O)O; Diglycolyl = O=C(COCC(=O)[*:2])[*:1]; NMeR = CN[C@@H](CCCNC(=N)N)C(=O)O; β3hE = N[C@@H](CCC(=O)O)CC(=O)O; X1 = O=C(c1ccccc1C[*:2])[*:1]; Pen = CC(C)(S)[C@H](N)C(=O)O; hCys = N[C@@H](CCS)C(=O)O

Experiments:
rh integrin α4β7 = molecular target: T1, rh integrin α4β7 (Homo sapiens, UniProt P13612+P26010); assay: α4β7-MAdCAM Competition ELISA; assay type: binding; conditions: read-out: ELISA A4B7
T1 construct: purchased R&D Systems 5397-A30
T1 sequence (P13612 34-977 limits assumed): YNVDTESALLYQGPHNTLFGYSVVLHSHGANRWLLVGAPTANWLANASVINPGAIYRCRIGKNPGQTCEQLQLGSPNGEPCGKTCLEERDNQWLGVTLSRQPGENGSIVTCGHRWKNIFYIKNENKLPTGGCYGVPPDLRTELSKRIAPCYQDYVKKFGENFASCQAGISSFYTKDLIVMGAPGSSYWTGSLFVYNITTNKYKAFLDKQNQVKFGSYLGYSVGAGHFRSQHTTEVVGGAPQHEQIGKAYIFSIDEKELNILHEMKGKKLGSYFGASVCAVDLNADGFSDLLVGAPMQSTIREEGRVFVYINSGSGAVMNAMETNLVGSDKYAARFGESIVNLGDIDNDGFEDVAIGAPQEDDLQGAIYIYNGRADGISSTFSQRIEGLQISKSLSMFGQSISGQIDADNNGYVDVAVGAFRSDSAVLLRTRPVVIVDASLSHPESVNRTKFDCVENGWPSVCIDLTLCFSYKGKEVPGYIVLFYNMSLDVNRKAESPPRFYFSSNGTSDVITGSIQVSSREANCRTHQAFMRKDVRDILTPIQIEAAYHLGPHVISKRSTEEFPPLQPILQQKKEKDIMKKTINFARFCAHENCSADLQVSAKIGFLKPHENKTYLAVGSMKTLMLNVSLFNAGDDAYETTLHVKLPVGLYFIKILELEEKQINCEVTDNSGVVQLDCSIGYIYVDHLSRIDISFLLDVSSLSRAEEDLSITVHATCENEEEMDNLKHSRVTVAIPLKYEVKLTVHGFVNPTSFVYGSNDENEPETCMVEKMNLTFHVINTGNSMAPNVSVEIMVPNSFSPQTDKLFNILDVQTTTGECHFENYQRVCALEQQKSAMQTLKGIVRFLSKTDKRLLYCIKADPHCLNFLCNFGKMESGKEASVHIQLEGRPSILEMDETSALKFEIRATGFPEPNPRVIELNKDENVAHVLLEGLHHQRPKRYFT
T1 sequence (P26010 20-723 limits assumed): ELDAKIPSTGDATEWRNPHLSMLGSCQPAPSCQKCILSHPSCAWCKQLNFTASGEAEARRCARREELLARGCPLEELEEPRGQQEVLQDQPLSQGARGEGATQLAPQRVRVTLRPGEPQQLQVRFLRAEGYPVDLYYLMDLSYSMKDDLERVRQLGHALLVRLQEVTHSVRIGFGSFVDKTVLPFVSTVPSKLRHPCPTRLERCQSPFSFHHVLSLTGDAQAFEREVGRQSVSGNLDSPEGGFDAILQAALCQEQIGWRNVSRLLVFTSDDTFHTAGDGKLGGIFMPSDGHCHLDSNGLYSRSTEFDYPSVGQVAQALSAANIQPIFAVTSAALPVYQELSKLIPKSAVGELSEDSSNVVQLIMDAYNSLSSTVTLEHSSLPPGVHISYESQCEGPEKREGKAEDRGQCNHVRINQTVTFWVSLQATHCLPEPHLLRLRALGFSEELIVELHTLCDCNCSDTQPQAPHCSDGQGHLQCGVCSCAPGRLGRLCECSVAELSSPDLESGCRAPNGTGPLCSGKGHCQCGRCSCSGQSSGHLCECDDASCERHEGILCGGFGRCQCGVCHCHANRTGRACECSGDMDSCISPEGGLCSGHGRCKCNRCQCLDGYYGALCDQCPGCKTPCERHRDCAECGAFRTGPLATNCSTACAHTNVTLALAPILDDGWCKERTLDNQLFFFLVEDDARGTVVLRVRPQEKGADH
Method in brief: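 Recombinant human α4β7 captured on nickel-coated plates, then incubated 1 h at room temperature with serially diluted peptides (final top 10 μM) and 10 nM final MAdCAM-1 in Tris pH 7.6 buffer with 1 mM MnCl2 or MgCl2. Bound MAdCAM-1 detected with anti-human IgG1-HRP and TMB, absorbance at 450 nm.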

[1] = Simulated Intestinal Fluid (SIF) Stability Assay; assay type: in vitro ADME; conditions: pig, 37° C.; for half-life: porcine pancreatin, dimers, Table 7; for half-life at 22 μM: simulated intestinal fluid (SIF) with 1% porcine pancreatin, pH 6.5, porcine pancreatin, monomers, Table 6
Method in brief: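 Peptide at 22 μM final was incubated at 37° C in blank FaSSIF pH 6.5 with 1% porcine pancreatin. Timed samples were quenched in acetonitrile/methanol/formic acid with internal standard and analysed by LC-MS/MS. Half-lives came from first-order exponential fits of percent remaining.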

[2] = thioether monomer peptides, Table 6

Compound	IC50 (rh integrin α4β7; [2])	other results
CC(=O)NCCCC[C@@H](NC(=O)[C@H](CCC(=O)O)NC(=O)[C@H](Cc1cccc2ccccc12)NC(=O)[C@H]1NC(=O)[C@H](CC(C)C)NC(=O)[C@H]([C@@H](C)O)NC(=O)[C@H](CC(=O)O)NC(=O)[C@H](CO)NC(=O)[C@H](CCCNC(=N)N)N(C)C(=O)c2ccccc2CSC1(C)C)C(N)=O [compound 89] (HELM PEPTIDE1{[meR].S.D.T.L.[Pen].[O=C([C@H](Cc1cccc2ccccc12)N[*:1])[*:2]].E.[dK].[am]}|PEPTIDE2{[ac]}|CHEM1{[O=C(c1ccccc1C[*:2])[*:1]]}$PEPTIDE1,PEPTIDE2,9:R3-1:R2|PEPTIDE1,CHEM1,1:R1-1:R1|PEPTIDE1,CHEM1,6:R3-1:R2$$$V2.0)	< 25 nM	–
CC(C)C[C@@H]1NC(=O)[C@H]([C@@H](C)O)NC(=O)[C@H](CC(=O)O)NC(=O)[C@H](CO)NC(=O)[C@H](CCCNC(=N)N)N(C)C(=O)CSC[C@@H](C(=O)N[C@@H](Cc2c[nH]c3ccccc23)C(=O)N[C@H](CCCCNC(=O)COCC(=O)NCCCC[C@@H](NC(=O)[C@H](Cc2c[nH]c3ccccc23)NC(=O)[C@@H]2CSCC(=O)N(C)[C@@H](CCCNC(=N)N)C(=O)N[C@@H](CO)C(=O)N[C@@H](CC(=O)O)C(=O)N[C@@H]([C@@H](C)O)C(=O)N[C@@H](CC(C)C)C(=O)N2)C(N)=O)C(N)=O)NC1=O [compound 143]	–	IC50 (rh integrin α4β7; thioether peptide dimers, Table 7): < 25 nM
CC(C)C[C@@H]1NC(=O)[C@H]([C@@H](C)O)NC(=O)[C@H](CC(=O)O)NC(=O)[C@H](CO)NC(=O)[C@H](CCCNC(=N)N)N(C)C(=O)c2ccccc2CSC(C)(C)[C@@H](C(=O)N[C@@H](Cc2c[nH]c3ccccc23)C(=O)N[C@H](CCC(=O)O)C(=O)N[C@@H](Cc2c[nH]cn2)C(N)=O)NC1=O [compound 102] (HELM PEPTIDE1{[meR].S.D.T.L.[Pen].W.[dE].H.[am]}|CHEM1{[O=C(c1ccccc1C[*:2])[*:1]]}$PEPTIDE1,CHEM1,1:R1-1:R1|PEPTIDE1,CHEM1,6:R3-1:R2$$$V2.0)	< 25 nM	–
CC(C)C[C@@H]1NC(=O)[C@H]([C@@H](C)O)NC(=O)[C@H](CC(=O)O)NC(=O)[C@H](CO)NC(=O)[C@H](CCCNC(=N)N)N(C)C(=O)c2ccccc2CSC(C)(C)[C@@H](C(=O)N[C@@H](Cc2c[nH]c3ccccc23)C(=O)N[C@H](CCC(=O)O)C(=O)N[C@H](CO)C(N)=O)NC1=O [compound 106] (HELM PEPTIDE1{[meR].S.D.T.L.[Pen].W.[dE].[dS].[am]}|CHEM1{[O=C(c1ccccc1C[*:2])[*:1]]}$PEPTIDE1,CHEM1,1:R1-1:R1|PEPTIDE1,CHEM1,6:R3-1:R2$$$V2.0)	< 25 nM	–
CC(C)C[C@@H]1NC(=O)[C@H]([C@@H](C)O)NC(=O)[C@H](CC(=O)O)NC(=O)[C@H](CO)NC(=O)[C@H](CCCNC(=N)N)N(C)C(=O)c2ccccc2CSC(C)(C)[C@@H](C(=O)N[C@@H](Cc2c[nH]c3ccccc23)C(=O)N[C@H](CCC(=O)O)C(=O)N[C@@H](Cc2ccc(O)cc2)C(N)=O)NC1=O [compound 104] (HELM PEPTIDE1{[meR].S.D.T.L.[Pen].W.[dE].Y.[am]}|CHEM1{[O=C(c1ccccc1C[*:2])[*:1]]}$PEPTIDE1,CHEM1,1:R1-1:R1|PEPTIDE1,CHEM1,6:R3-1:R2$$$V2.0)	< 25 nM	–
CC(C)C[C@@H]1NC(=O)[C@H]([C@@H](C)O)NC(=O)[C@H](CC(=O)O)NC(=O)[C@H](CO)NC(=O)[C@H](CCCNC(=N)N)N(C)C(=O)c2ccccc2CSC(C)(C)[C@@H](C(=O)N[C@@H](Cc2c[nH]c3ccccc23)C(=O)N[C@H](CCC(=O)O)C(=O)N[C@H](CCC(=O)O)C(N)=O)NC1=O [compound 108] (HELM PEPTIDE1{[meR].S.D.T.L.[Pen].W.[dE].[dE].[am]}|CHEM1{[O=C(c1ccccc1C[*:2])[*:1]]}$PEPTIDE1,CHEM1,1:R1-1:R1|PEPTIDE1,CHEM1,6:R3-1:R2$$$V2.0)	< 25 nM	–
CC(C)C[C@@H]1NC(=O)[C@H]([C@@H](C)O)NC(=O)[C@H](CC(=O)O)NC(=O)[C@H](CO)NC(=O)[C@H](CCCNC(=N)N)N(C)C(=O)c2ccccc2CSC(C)(C)[C@@H](C(=O)N[C@@H](Cc2c[nH]c3ccccc23)C(=O)N[C@H](CCC(=O)O)C(=O)N[C@H](Cc2ccccc2)C(N)=O)NC1=O [compound 107] (HELM PEPTIDE1{[meR].S.D.T.L.[Pen].W.[dE].[dF].[am]}|CHEM1{[O=C(c1ccccc1C[*:2])[*:1]]}$PEPTIDE1,CHEM1,1:R1-1:R1|PEPTIDE1,CHEM1,6:R3-1:R2$$$V2.0)	< 25 nM	–
CC(C)C[C@@H]1NC(=O)[C@H]([C@@H](C)O)NC(=O)[C@H](CC(=O)O)NC(=O)[C@H](CO)NC(=O)[C@H](CCCNC(=N)N)N(C)C(=O)c2ccccc2CSCC[C@@H](C(=O)N[C@@H](Cc2c[nH]c3ccccc23)C(=O)N[C@@H](CCC(=O)O)C(=O)N[C@H](CCCCNC(=O)COCC(=O)NCCCC[C@@H](NC(=O)[C@H](CCC(=O)O)NC(=O)[C@H](Cc2c[nH]c3ccccc23)NC(=O)[C@@H]2CCSCc3ccccc3C(=O)N(C)[C@@H](CCCNC(=N)N)C(=O)N[C@@H](CO)C(=O)N[C@@H](CC(=O)O)C(=O)N[C@@H]([C@@H](C)O)C(=O)N[C@@H](CC(C)C)C(=O)N2)C(N)=O)C(N)=O)NC1=O [compound 157] (I: [NMeR]SDTL[hCys]WE[dK]-NH2 / II: [NMeR]SDTL[hCys]WE[dK]-NH2; linker I:9-II:9 via Diglycolyl; linker I:N-I:6, II:N-II:6 via X1)	–	half-life [1]: < 20 min
CC(C)C[C@@H]1NC(=O)[C@H]([C@@H](C)O)NC(=O)[C@H](CC(=O)O)NC(=O)[C@H](CO)NC(=O)[C@H](CCCNC(=N)N)N(C)C(=O)c2ccccc2CSC(C)(C)[C@@H](C(=O)N[C@@H](Cc2ccc(-c3ccccc3)cc2)C(=O)N[C@@H](CCC(=O)O)CC(N)=O)NC1=O [compound 133] ([NMeR]SDTL[Pen][Bip][β3hE]-NH2; linker N-6 via X1)	–	half-life at 22 μM [1]: > 180 min
CC(C)C[C@@H]1NC(=O)[C@H]([C@@H](C)O)NC(=O)[C@H](CC(=O)O)NC(=O)[C@H](CO)NC(=O)[C@H](CCCNC(=N)N)N(C)C(=O)c2ccccc2CSC(C)(C)[C@@H](C(=O)N[C@@H](Cc2ccc(C(C)(C)C)cc2)C(=O)N[C@@H](CCC(=O)O)CC(N)=O)NC1=O [compound 134] ([NMeR]SDTL[Pen][Phe(4-tBu)][β3hE]-NH2; linker N-6 via X1)	–	half-life at 22 μM [1]: > 180 min
CC(C)C[C@@H]1NC(=O)[C@H]([C@@H](C)O)NC(=O)[C@H](CC(=O)O)NC(=O)[C@H](CO)NC(=O)[C@H](CCCNC(=N)N)N(C)C(=O)c2ccccc2CSC[C@H](C(=O)N[C@@H](Cc2c[nH]c3ccccc23)C(=O)N[C@@H](CCC(=O)O)CC(=O)N[C@H](CCCCNC(=O)COCC(=O)NCCCC[C@@H](NC(=O)C[C@H](CCC(=O)O)NC(=O)[C@H](Cc2c[nH]c3ccccc23)NC(=O)[C@H]2CSCc3ccccc3C(=O)N(C)[C@@H](CCCNC(=N)N)C(=O)N[C@@H](CO)C(=O)N[C@@H](CC(=O)O)C(=O)N[C@@H]([C@@H](C)O)C(=O)N[C@@H](CC(C)C)C(=O)N2)C(N)=O)C(N)=O)NC1=O [compound 156] (I: [NMeR]SDTL[dC]W[β3hE][dK]-NH2 / II: [NMeR]SDTL[dC]W[β3hE][dK]-NH2; linker I:9-II:9 via Diglycolyl; linker I:N-I:6, II:N-II:6 via X1)	–	half-life [1]: > 180 min
